Measurements taken from PubChem BioAssay (NCI).
Where “and” joins values, the source holds several entries; their conditions need not be identical. Equal values may be shown once.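 Grown in 96-well plates, cells were treated for 48 hours with each compound at five concentrations. Insufficient inhibition: endpoint recorded as highest concentration tested. The concentration for 50% growth inhibition is given as GI50. TGI is the concentration that stops growth completely.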 Where a SMILES comes first, the peptide text is derived from it. The star is where a group is joined. Boc = CC(C)(C)OC(=O)*

Experiments:
Test in all cases: NCI tumour cell line growth inhibition, 48 h
[1] = test system: M14 melanoma
[2] = test system: TK-10 renal
[3] = test system: OVCAR-3 ovarian
[4] = test system: HCC-2998 colon
[5] = test system: HOP-62 NSCLC
[6] = test system: SK-MEL-2 melanoma
[7] = test system: NCI-H226 lung
[8] = test system: UACC-257 melanoma
[9] = test system: BT-549 breast
[10] = test system: OVCAR-8 ovarian
[11] = test system: UACC-62 melanoma

Structure (SMILES)	TGI [1]	TGI [2] [µM]	TGI [3] [µM]	TGI [4] [µM]	TGI [5]	TGI [6] [µM]	TGI [7]	TGI [8]	TGI [9]	TGI [10] [µM]	GI50 [7]	GI50 [11] [µM]	TGI [11]	GI50 [10] [µM]	GI50 [3] [µM]	GI50 [2]	GI50 [6]	GI50 [4] [µM]	GI50 [5] [µM]	GI50 [8] [µM]
c1ccc([I+]c2ccccc2)cc1	> 100 µM	> 100	> 100	> 100	> 100 µM	> 100	> 100 µM	> 100 µM	> 100 µM	> 100	–	–	–	–	–	–	–	–	–	–
NS(=O)(=O)c1ccc(/C=C/c2ccc(O)cc2)cc1	> 100 µM	> 100	54.5	40.6	82.9 µM	60.3	33.1 µM	> 100 µM	–	31.9	11.1 µM	3.4	20.4 µM	4.81	–	–	–	–	–	–
CCOC(=O)/C=C(/C)Nc1nc2c(c(C(=O)OC)c1C#N)CCCC2	> 100 µM	> 100	–	> 100	> 100 µM	> 100	> 100 µM	> 100 µM	> 100 µM	> 100	–	–	> 100 µM	–	–	–	–	–	–	–
CC(=O)Oc1ccc2c3c1O[C@H]1[C@H](O)CC[C@@]4(O)[C@@H](C2)N(C)CC[C@]314	> 100 µM	> 100	> 100	–	> 100 µM	> 100	> 100 µM	> 100 µM	> 100 µM	> 100	–	–	> 100 µM	–	–	–	–	–	–	–
Cc1nc2sccn2c1/C=C1/C(=O)Nc2cccc(Cl)c21	> 100 µM	> 100	> 100	> 100	> 100 µM	> 100	–	> 100 µM	> 100 µM	> 100	–	–	> 100 µM	–	–	–	–	–	–	–
O=C(N/N=C/c1ccccc1)c1cccc2nc3ccccc3nc12	> 100 µM	> 100	> 100	–	> 45.7 µM	> 100	> 100 µM	> 100 µM	> 100 µM	> 100	–	–	> 100 µM	–	–	–	–	–	–	–
C#CC1(O)CCCCCCCCC2(CCCCCCCC1)OCCO2	33.9 µM	37	29.3	29.5	44.5 µM	27.9	34 µM	39.2 µM	–	34.4	–	–	28.6 µM	–	–	–	–	–	–	–
Cc1cc(S(=O)(=O)/N=C(\[N-]S(=O)(=O)c2cc(Cl)sc2Cl)[n+]2ccc(N(C)C)cc2)c(S)cc1Cl	95.8 µM	> 100	> 100	> 100	> 100 µM	> 100	> 100 µM	> 100 µM	–	> 100	–	–	–	–	–	–	–	–	–	–
CCOC(=O)c1nnc2c(C#N)c(-c3ccccc3)c(C)n2c1N	> 100 µM	> 100	> 100	> 100	> 100 µM	> 100	–	92.7 µM	> 100 µM	98.3	–	–	66.6 µM	–	–	–	–	–	–	–
CCOC(=O)c1nc2ccc(C(F)(F)F)cc2nc1Oc1ccc(C(=O)OC)cc1	> 100 µM	> 100	–	> 100	74.8 µM	> 100	> 100 µM	> 100 µM	> 100 µM	> 100	–	–	> 100 µM	–	–	–	–	–	–	–
CC1=C(C)SC(=C2Sc3nc(O)[nH]c(=O)c3S2)S1	94.1 µM	> 100	> 100	> 100	> 100 µM	–	> 100 µM	> 100 µM	> 100 µM	> 100	–	–	59.4 µM	–	–	–	–	–	–	–
CCOc1cc2c(c(OCC)c1O)CC[C@@H]1[C@@H]2CC[C@]2(C)[C@@H](O)CC[C@@H]12	> 100 µM	> 100	3.08	–	40.5 µM	83.7	> 100 µM	–	–	> 100	–	–	27.5 µM	–	0.0896	–	–	–	–	–
COc1cc2c(c(OC)c1OC)-c1ccc(SC)cc1C(O)CC2 (stereo unspecified)	> 100 µM and 34.9 µg/mL	> 100	> 100	18.3	–	> 100	–	32.8 µg/mL	41 µg/mL	–	–	–	20.4 µM	–	–	14.2 µg/mL	27.4 µg/mL	–	–	–
COc1cc(OC)c2[nH]c3c(O)c(-c4c(C)cc5c([nH]c6c(OC)cc(OC)cc65)c4O)c(C)cc3c2c1	15.5 µM	17.9	18.6	15.3	23.9 µM	17.4	17.6 µM	19 µM	16.1 µM	15.3	–	–	–	–	–	–	–	–	–	–
COc1ccc2nc3cccc([N+](=O)[O-])c3c(NCCCO)c2c1	0.00227 µM	–	–	–	0.0157 µM and 0.0193 µM	0.00376	0.0803 µM and 0.0618 µM	0.0166 µM	0.0146 µM and 0.0929 µM	0.0132	0.0181 µM and 0.0138 µM	0.00294	0.0151 µM and 0.0185 µM	–	–	0.00188 µM	0.00162 µM	0.00186	0.00282	0.00379
CCCCCCCCCCCCCCCCCCOCC(O)COP(=O)(O)OCC1OC(n2ccc(N)nc2=O)C(O)C1O (stereo unspecified)	–	51.1	> 100	> 100	48.9 µM	–	> 100 µM	> 100 µM	–	24.3	–	–	70.2 µM	–	–	–	–	–	–	–
O=c1oc2c(Cl)cc(Cl)cc2cc1C1=CSC2=NCCN12	> 100 µM	> 100	92.9	–	> 100 µM	> 100	–	> 100 µM	74.4 µM	> 100	–	–	> 100 µM	–	–	–	–	–	–	–
COC(=O)[C@H](Cc1ccc(O)cc1)NC(=O)[C@H](Cc1ccc(O)cc1)NC(=O)OC(C)(C)C (Boc-Tyr-Tyr-OMe)	> 100 µM	> 100	> 100	> 100	> 100 µM	–	> 100 µM	> 100 µM	> 100 µM	> 100	–	–	> 100 µM	–	–	–	–	–	–	–
COc1ccccc1C1c2cc3c(cc2OC(N2CCOCC2)C1C)OCO3 (stereo unspecified)	38.7 µM	> 100	29.5	–	35.3 µM	37.3	–	36.9 µM	–	> 100	–	–	35.5 µM	–	–	–	–	–	–	–
COC(=O)CCC(NC(=O)OC(C)(C)C)C(=O)NC(Cc1ccc(NC(=O)CCCC(C)=O)cc1)C(=O)NC(CCC(=O)OC)C(=O)OC (stereo unspecified)	> 100 µM	> 100	> 100	> 100	> 100 µM	> 100	> 100 µM	> 100 µM	–	> 100	–	–	> 100 µM	–	–	–	–	–	–	–
